Assay results published in US20120195986A1, “PREVENTING OR TREATING PERIODONTAL DISEASES BY HERBAL EXTRACT” (priority 2009, published 2012).

System: male ICR mice
Assay: In vivo anti-inflammatory activity (croton oil-induced ear inflammation, ear thickness)
Parameters: species or system mouse
Settings: 20 mg/kg orally (positive control)
Procedure: In order to evaluate in vivo anti-inflammatory activity of the combined extract prepared in Preparation Examples 4 to 7 showing improved osteoblast proliferation and anti-inflammatory activity in the above Experimental Examples 1 and 2 and single extract in Examples 1.1 and 1.2, Hee et. al.'s method was used for the evaluation (Kor J. Pharmacogn. 25(4), 363˜367, 1994, Arch. Pharm. Res. 16(1), 18˜24, 1993.), and the result is shown in Table 2. In Table 2, 20 mg/kg was administered for positive control (Indomethacin, Sigma) and 200 mg/kg was administered for the test groups orally. Dose dependent anti-inflammatory activity was evaluated for the Example 5 with the highest activity, and the result is shown in Table 3. The thickness of ear was measured by using a thickness gauge (model H, Peacock, Japan) for male ICR mice (6 weeks, Samtaco Biokorea) before treating with the formulation. The control and test drug was administered orally, and the inflammation was induced 1 hour after the administration by smearing 10 uL of inflammation inducing material (2.5% croton oil, sigma) dissolved in acetone on the inner and outer ear after immobilizing the mice. In 5 hours, the mice were sacrificed by cervical dislocation and the thickness of the right ear was measured.

SMILES: COc1ccc2c(c1)c(CC(=O)O)c(C)n2C(=O)c1ccc(Cl)cc1 [Indomethacin]
- Anti-inflammatory activity (%): 50%
